Assay results published in patent US6794386B2, “β-amino acid compounds as integrin antagonists” (Bayer Aktiengesellschaft, priority 2000, dated 2004).

What follows are compounds tested against T1, VLA-4 (Homo sapiens, UniProt P05556+P13612) (assay: Adhesion of Jurkat cells to immobilized VCAM-1 (domains 1-3)). Conditions: adhesion of CFSE-labeled Jurkat cells to recombinant human VCAM-1 (domains 1-3) coated plates; compounds as yielded by solid phase synthesis, purity about 40-90%.
T1 construct: host or cells: Jurkat clone E6-1
Type: cell-based
Parameters: scale not given here
Protocol: In Vitro Assay: Adhesion of Jurkat Cells to Immobilized VCAM-1 (Domains 1-3).
Preparation of Fluorescence Labeled Jurkat Cells:
Jurkat cells (American Type Culture Collection, Clone E6-1, ATCC TIB-152) were cultured in RPMI 1640 medium (Nikken Bio Medical Laboratory, CM1101) supplemented with 10% fetal bovine serum (Hyclone, A-1119-L), 100 U/ml penicilin (Gibco BRL, 15140-122) and 100 μg/ml streptomycin (Gibco BRL, 15140-122) in a humidified incubator at 37° C. with 5% CO2.
Jurkat cells were incubated with phosphate balanced solution (PBS, Nissui, 05913) containing 25 μM of 5(-and-6)-carboxyfluorescein diacetate, succinimidyle ester (CFSE, Dojindo Laboratories, 345-06441) for 20 min at room temperature while gently swirling every 5 min. After centrifugation at 1000 rpm for 5 min, the cell pellet was resuspended with adhesion assay buffer at a cell density of 2×10^6 cells/ml. The adhesion assay buffer was composed of 24 mM Tris-HCl (pH 7.4), 137 mM NaCl, 27 mM KCl, 4 mM glucose, 0.1% bovine serum albumin (BSA, Sigma, A9647) and 2 mM MnCl2.
Preparation of VCAM-1 (Extracellular Domains 1-3):
Complementary DNA (cDNA) encoding 7-domain form of VCAM-1 (GenBank accession #M60335) was obtained using Rapid-Screen™ cDNA library panels (OriGene Technologies, Inc) at Takara Gene Analysis Center (Shiga, Japan). The primers used were 5′-CCAAGGCAGAGTACGCAAAC-3′ (sence) and 5′-TGGCAGGTATTATTAAGGAG-3′ (antisense). PCR amplification of the 3-domain VCAM-1 cDNA was perform using Pfu DNA polymerase (Stratagene) with the following sets of primers: (U-VCAMd1-3) 5′-CCATATGGTACCTGATCAATTTAAAATCGAGACCACCCCAGAA-3′; (L-VCAMd1-3) 5′-CCATATAGCAATCCTAGGTCCAGGGGAGATCTCAACAGTAAA-3′. PCR cycle was 94° C. for 45 sec, 55° C. for 45 sec, 72° C. for 2 min, repeating 15 cycles. After the purification of the PCR product, the fragment was digested with KpnI-AvrII. The digested fragment was ligated into pBluescript IISK(−) (Strategene), which was linealized by digesting with KpnI-XhoI. The ligation was followed by transformation to a Dam/Dcm methylase-free E. coli strain SCS110 (Strategene) to create the donor plasmid pH7. To direct VCAM-1 molecule into the insect cell secretory pathway, the VCAM-1 coding sequence was fused to signal peptide sequence of honeybee melittin. The resulting melittin-VCAM fusion was placed in correct orientation to the baculoviris polyhedrin promoter. Baculovirus transfer vector containing first 3-domain form VCAM-1 (pH10) was constructed by ligation of 0.9 kb fragment from AvrII/Klenow/BclI digests of pH7 into SalI/Klenow/BamHI digests of pMelBacB (Invitrogen). Recombinant baculovirus was generated by using Bac-N-Blue™ Transfection kit (Invitrogen) according to the manufacture's instruction. The recombinant virus was amplified by infection to High-Five™ insect cells for 5-6 days, and virus titer was determined by plaque assay.
High-Five™ insect cells were pelleted in a 225 ml conical tube by centrifugation at 1000 rpm for 5 min After discarding the supernatant, the pellet was resuspended in 1.5×10^9 pfu (MOI=5) of high-titer virus solution, followed by incubation for 1.5 hours at room temperature. The cells were pelleted again and washed once in fresh Express Five™ serum free medium. The cells were pelleted again and finally, resuspended in 200 ml of fresh Express Five™ medium, transferred to a 1,000 ml shaker flask, and incubated in a shaker at 27° C., 130 rpm, for 48 hours before the culture supernatant was collected. The purification of 3-domain form of VCAM-1 from the culture supernatant was performed by one-step anion exchange chromatography. Protein concentration was determined by using Coomassie protein assay reagent (Pierce) according to the manufacture's instruction.
Preparation of Microtiter Plates:
Recombinant human VCAM-1 (extracellular domains 1-3) was dissolved at 0.5 μg/ml in PBS. […]

T1 sequence (P13612 34-1032): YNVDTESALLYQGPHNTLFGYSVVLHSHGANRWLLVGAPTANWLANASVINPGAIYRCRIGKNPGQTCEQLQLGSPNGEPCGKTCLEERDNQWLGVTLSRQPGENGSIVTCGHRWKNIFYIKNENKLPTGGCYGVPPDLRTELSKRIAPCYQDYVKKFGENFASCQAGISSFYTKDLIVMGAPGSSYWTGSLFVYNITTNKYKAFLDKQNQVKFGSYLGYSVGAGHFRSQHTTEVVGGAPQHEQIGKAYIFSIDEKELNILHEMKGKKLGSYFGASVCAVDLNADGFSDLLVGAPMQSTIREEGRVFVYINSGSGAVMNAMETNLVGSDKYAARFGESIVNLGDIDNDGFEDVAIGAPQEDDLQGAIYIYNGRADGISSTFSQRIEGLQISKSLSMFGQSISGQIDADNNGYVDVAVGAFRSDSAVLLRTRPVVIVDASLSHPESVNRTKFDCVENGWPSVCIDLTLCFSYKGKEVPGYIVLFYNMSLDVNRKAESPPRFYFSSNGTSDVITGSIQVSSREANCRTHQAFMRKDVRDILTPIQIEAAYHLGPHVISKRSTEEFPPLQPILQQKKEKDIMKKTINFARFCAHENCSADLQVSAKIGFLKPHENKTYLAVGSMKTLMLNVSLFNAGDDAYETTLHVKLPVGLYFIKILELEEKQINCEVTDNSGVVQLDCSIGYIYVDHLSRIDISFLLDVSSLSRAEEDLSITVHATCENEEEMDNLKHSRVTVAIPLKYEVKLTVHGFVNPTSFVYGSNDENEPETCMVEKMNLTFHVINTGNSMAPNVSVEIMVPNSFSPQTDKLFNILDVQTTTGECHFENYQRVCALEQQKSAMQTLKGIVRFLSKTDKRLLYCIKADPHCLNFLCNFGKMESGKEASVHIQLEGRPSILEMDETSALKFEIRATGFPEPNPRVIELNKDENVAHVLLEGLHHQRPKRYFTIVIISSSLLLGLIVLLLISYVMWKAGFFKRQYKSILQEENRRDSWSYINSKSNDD
T1 sequence (P05556 21-798): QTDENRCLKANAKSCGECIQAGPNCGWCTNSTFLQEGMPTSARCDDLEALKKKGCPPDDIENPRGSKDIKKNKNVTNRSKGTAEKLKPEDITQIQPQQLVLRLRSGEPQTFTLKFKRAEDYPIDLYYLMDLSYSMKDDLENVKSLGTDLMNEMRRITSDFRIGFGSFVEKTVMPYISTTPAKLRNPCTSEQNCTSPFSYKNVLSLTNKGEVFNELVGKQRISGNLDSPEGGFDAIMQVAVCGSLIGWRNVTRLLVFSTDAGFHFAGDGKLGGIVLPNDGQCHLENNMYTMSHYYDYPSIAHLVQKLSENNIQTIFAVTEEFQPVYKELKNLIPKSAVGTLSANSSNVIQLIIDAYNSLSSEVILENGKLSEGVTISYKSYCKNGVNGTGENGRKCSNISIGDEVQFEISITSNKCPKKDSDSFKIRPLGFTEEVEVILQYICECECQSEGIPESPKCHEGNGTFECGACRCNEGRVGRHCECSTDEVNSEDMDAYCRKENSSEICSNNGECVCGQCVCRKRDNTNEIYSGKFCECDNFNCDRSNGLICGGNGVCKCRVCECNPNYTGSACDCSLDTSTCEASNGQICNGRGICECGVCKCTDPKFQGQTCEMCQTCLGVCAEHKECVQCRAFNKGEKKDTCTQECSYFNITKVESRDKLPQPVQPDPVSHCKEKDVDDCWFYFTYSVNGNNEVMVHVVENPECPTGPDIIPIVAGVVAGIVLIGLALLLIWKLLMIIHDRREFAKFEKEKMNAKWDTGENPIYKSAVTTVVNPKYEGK

SMILES | IC50
Cc1ccc(-c2ccc(C[C@H](NC(=O)C3CCCN(C(=O)c4ccccc4Cl)C3)C(=O)O)cc2)cc1 (stereo partly drawn) [Example 1.2, (2S)-2-({[1-(2-chlorobenzoyl)-3-piperidinyl]carbonyl}amino)-3-(4′-methyl[1,1′-biphenyl]-4-yl)propanoic acid] | C-D
O=C(N[C@@H](Cc1ccc(-c2ccccc2)cc1)C(=O)O)C1CCCN(C(=O)Cc2ccccc2)C1 (some centres unmarked) [Example 1.7] | C-D
O=C(N[C@@H](Cc1ccc(-c2ccccc2)cc1)C(=O)O)C1CCCN(C(=O)c2cccc(Cl)c2)C1 (some centres unmarked) [Example 1.8] | C-D
Cc1ccc(C(=O)N2CCCC(C(=O)N[C@@H](Cc3ccc(-c4ccccc4)cc3)C(=O)O)C2)cc1 (some centres unmarked) [Example 1.9] | C-D
O=C(N[C@@H](Cc1ccc(-c2ccccc2)cc1)C(=O)O)C1CCCN(C(=O)c2ccc3c(c2)OCO3)C1 (some centres unmarked) [Example 1.10] | C-D
O=C(N[C@@H](Cc1ccc(-c2ccccc2)cc1)C(=O)O)C1CCCN(C(=O)C2CCCCC2)C1 (some centres unmarked) [Example 1.11] | C-D
Cc1cc(Cl)c(CC(=O)N2CCCC(C(=O)N[C@@H](Cc3ccc(-c4ccccc4)cc3)C(=O)O)C2)c(Cl)c1 (some centres unmarked) [Example 1.12] | C-D
O=C(N[C@@H](Cc1ccc(-c2ccccc2)cc1)C(=O)O)C1CCCN(C(=O)c2ccccc2Cl)C1 (some centres unmarked) [Example 1.13] | C-D
COc1ccccc1C(=O)N1CCCC(C(=O)N[C@@H](Cc2ccc(-c3ccccc3)cc2)C(=O)O)C1 (some centres unmarked) [Example 1.14] | C-D
Cc1cc(C)c(OC(=O)N2CCCC(C(=O)N[C@@H](Cc3ccc(-c4ccccc4)cc3)C(=O)O)C2)c(C)c1 (some centres unmarked) [Example 1.15] | C-D
Cc1ccc(-c2ccc(C[C@H](NC(=O)C3CCCN(C(=O)Cc4ccccc4)C3)C(=O)O)cc2)cc1 (some centres unmarked) [Example 1.17] | C-D
Cc1ccc(-c2ccc(C[C@H](NC(=O)C3CCCN(C(=O)c4cccc(Cl)c4)C3)C(=O)O)cc2)cc1 (some centres unmarked) [Example 1.18] | C-D
Cc1ccc(C(=O)N2CCCC(C(=O)N[C@@H](Cc3ccc(-c4ccc(C)cc4)cc3)C(=O)O)C2)cc1 (some centres unmarked) [Example 1.19] | C-D
Cc1ccc(-c2ccc(C[C@H](NC(=O)C3CCCN(C(=O)c4ccc5c(c4)OCO5)C3)C(=O)O)cc2)cc1 (some centres unmarked) [Example 1.20] | C-D
Cc1ccc(-c2ccc(C[C@H](NC(=O)C3CCCN(C(=O)C4CCCCC4)C3)C(=O)O)cc2)cc1 (some centres unmarked) [Example 1.21] | C-D
Cc1ccc(-c2ccc(C[C@H](NC(=O)C3CCCN(C(=O)Cc4c(Cl)cc(Cl)cc4Cl)C3)C(=O)O)cc2)cc1 (some centres unmarked) [Example 1.22] | C-D
Cc1ccc(-c2ccc(C[C@H](NC(=O)C3CCCN(C(=O)Oc4c(C)cc(C)cc4C)C3)C(=O)O)cc2)cc1 (some centres unmarked) [Example 1.23] | C-D
COc1ccc(-c2ccc(C[C@H](NC(=O)C3CCCN(C(=O)C4CCCCC4)C3)C(=O)O)cc2)cc1 (some centres unmarked) [Example 1.24] | C-D
COc1ccc(-c2ccc(C[C@H](NC(=O)C3CCCN(C(=O)Cc4c(Cl)cc(C)cc4Cl)C3)C(=O)O)cc2)cc1 (some centres unmarked) [Example 1.25] | C-D
COc1ccc(-c2ccc(C[C@H](NC(=O)C3CCCN(C(=O)c4ccccc4OC)C3)C(=O)O)cc2)cc1 (some centres unmarked) [Example 1.27] | C-D
COc1ccc(-c2ccc(C[C@H](NC(=O)C3CCCN(C(=O)Oc4c(C)cc(C)cc4C)C3)C(=O)O)cc2)cc1 (some centres unmarked) [Example 1.28] | C-D
COc1ccc(-c2ccc(C[C@H](NC(=O)C3CCCN(C(=O)OC4CCCC4)C3)C(=O)O)cc2)cc1 (some centres unmarked) [Example 1.29] | C-D
Cc1ccccc1-c1ccc(C[C@H](NC(=O)C2CCCN(C(=O)Cc3ccccc3)C2)C(=O)O)cc1 (some centres unmarked) [Example 1.30] | C-D
Cc1ccccc1-c1ccc(C[C@H](NC(=O)C2CCCN(C(=O)c3ccc4c(c3)OCO4)C2)C(=O)O)cc1 (some centres unmarked) [Example 1.33] | C-D
Cc1ccccc1-c1ccc(C[C@H](NC(=O)C2CCCN(C(=O)C3CCCCC3)C2)C(=O)O)cc1 (some centres unmarked) [Example 1.34] | C-D
Cc1cc(Cl)c(CC(=O)N2CCCC(C(=O)N[C@@H](Cc3ccc(-c4ccccc4C)cc3)C(=O)O)C2)c(Cl)c1 (some centres unmarked) [Example 1.35] | C-D
Cc1ccccc1-c1ccc(C[C@H](NC(=O)C2CCCN(C(=O)c3ccccc3Cl)C2)C(=O)O)cc1 (some centres unmarked) [Example 1.36] | C-D
Cc1cc(C)c(OC(=O)N2CCCC(C(=O)N[C@@H](Cc3ccc(-c4ccccc4C)cc3)C(=O)O)C2)c(C)c1 (some centres unmarked) [Example 1.38] | C-D
O=C(N[C@@H](Cc1ccc(-c2ccc(Cl)cc2Cl)cc1)C(=O)O)C1CCCN(C(=O)Cc2ccccc2)C1 (some centres unmarked) [Example 1.40] | C-D
O=C(N[C@@H](Cc1ccc(-c2ccc(Cl)cc2Cl)cc1)C(=O)O)C1CCCN(C(=O)c2cccc(Cl)c2)C1 (some centres unmarked) [Example 1.41] | C-D

Same assay, conditions: adhesion of CFSE-labeled Jurkat cells to recombinant human VCAM-1 (domains 1-3) coated plates; compounds as yielded by solid phase synthesis, purity about 40-90%; read-out: IC50

SMILES | IC50 [nM]
COc1ccccc1C(=O)N1CCCC(C(=O)N[C@@H](Cc2ccc(-c3cc(Cl)ccc3Cl)cc2)C(=O)O)C1 (stereo partly drawn) [Example 1.1, (2S)-3-(2′,5′-dichloro[1,1′-biphenyl]-4-yl)-2-({[1-(2-methoxybenzoyl)-3-piperidinyl]carbonyl}amino)propanoic acid] | ≤ 500
Cc1ccccc1-c1ccc(C[C@H](NC(=O)C2CCCN(S(=O)(=O)c3c(Cl)cccc3Cl)C2)C(=O)O)cc1 (stereo partly drawn) [Example 1.3, (2S)-2-[({1-[(2,6-dichlorophenyl)sulfonyl]-3-piperidinyl}carbonyl)amino]-3-(2′-methyl[1,1′-biphenyl]-4-yl)propanoic acid] | 500 to 2000
O=C(N[C@@H](Cc1ccc(-c2ccc(Cl)cc2Cl)cc1)C(=O)O)C1CCCN(C(=O)c2ccccc2Cl)C1 (stereo partly drawn) [Example 1.4, (2S)-2-({[1-(2-chlorobenzoyl)-3-piperidinyl]carbonyl}amino)-3-(2′,4′-dichloro[1,1′-biphenyl]-4-yl)propanoic acid] | 500 to 2000
O=C(N[C@@H](Cc1ccc(-c2cc(Cl)ccc2Cl)cc1)C(=O)O)C1CCCN(C(=O)OC2CCCC2)C1 (stereo partly drawn) [Example 1.5, (2S)-2-[({1-[(cyclopentyloxy)carbonyl]-3-piperidinyl}carbonyl)amino]-3-(2′,5′-dichloro[1,1′-biphenyl]-4-yl)propanoic acid] | ≤ 500
O=C(N[C@@H](Cc1ccc(-c2cc(Cl)ccc2Cl)cc1)C(=O)O)C1CCCN(S(=O)(=O)Cc2ccccc2)C1 (some centres unmarked) [Example 1.6] | ≤ 500
O=C(N[C@@H](Cc1ccc(-c2ccccc2)cc1)C(=O)O)C1CCCN(C(=O)OC2CCCC2)C1 (some centres unmarked) [Example 1.16] | 2000 to 10000
COc1ccc(-c2ccc(C[C@H](NC(=O)C3CCCN(C(=O)c4ccccc4Cl)C3)C(=O)O)cc2)cc1 (some centres unmarked) [Example 1.26] | 500 to 2000
Cc1ccccc1-c1ccc(C[C@H](NC(=O)C2CCCN(C(=O)c3cccc(Cl)c3)C2)C(=O)O)cc1 (some centres unmarked) [Example 1.31] | 2000 to 10000
Cc1ccc(C(=O)N2CCCC(C(=O)N[C@@H](Cc3ccc(-c4ccccc4C)cc3)C(=O)O)C2)cc1 (some centres unmarked) [Example 1.32] | 2000 to 10000
COc1ccccc1C(=O)N1CCCC(C(=O)N[C@@H](Cc2ccc(-c3ccccc3C)cc2)C(=O)O)C1 (some centres unmarked) [Example 1.37] | 500 to 2000
Cc1ccccc1-c1ccc(C[C@H](NC(=O)C2CCCN(C(=O)OC3CCCC3)C2)C(=O)O)cc1 (some centres unmarked) [Example 1.39] | 500 to 2000
